Our source for the Activity, IC50 and DC50 values is ChEMBL document CHEMBL4680361, “Degradation of Janus Kinase for Potential Application in Immune Response Therapeutics” (ACS Med Chem Lett, 2021).

Molecules are shown by their SMILES. The source made the active and inactive calls. No cut-off for these calls is given here.

The subject of data set [1] is IMR-90. As to the kind of experiment: Cytotoxicity against human IMR-90 cells assessed as effect on cell viability at 10^-10 to 10^-5 M measured after 3 days by CellTiter-Glo assay. In kind it is cell-based. The conditions noted are these: imr-90, 72 h, dose 0.0001-10 µM, time 3 day.
Data set [2] has as its system RS4-11. As to the kind of experiment: Cytotoxicity against human RS4-11 cells assessed as reduction in cell viability measured after 3 days by CellTiter-Glo assay. It counts as functional, cell-based. To be noted: RS4-11, 72 h. (In ATP-based viability assays light output follows the ATP content of the culture.)
Data set [3] deals with Protein cereblon/Tyrosine-protein kinase JAK1 (Homo sapiens, UniProt P23458+Q96SW2). As to the kind of experiment: Protac activity at CRBN/JAK1 in human RS4-11 cells assessed as degradation of JAK1 measured after 24 hrs by immunoblotting analysis. In kind it is cell-based. In general terms: In western blotting, separated proteins are transferred to a membrane and probed.
The test system of data set [4] is Protein cereblon/Tyrosine-protein kinase JAK2 (Homo sapiens), O60674+Q96SW2 [UNDEFINED MUTATION]. The data set is described as follows: Protac activity at CRBN/JAK2 V617 mutant in human HEL cells assessed as decrease in JAK2 V617 mutant protein level at < 60 nM measured after 24 hrs by immunoblotting analysis. In kind it is cell-based. To be noted: dose nM <60, time 24.0 hrs.

Data set [5] relates to HaCaT. As to the kind of experiment: Cytotoxicity against human HaCaT cells assessed as effect on cell viability at 10^-10 to 10^-5 M measured after 3 days by CellTiter-Glo assay. It counts as cell-based. To be noted: 72 h, dose 0.0001-10 µM, time 3 day.

Sequence of Protein cereblon/Tyrosine-protein kinase JAK1 (P23458 whole entry): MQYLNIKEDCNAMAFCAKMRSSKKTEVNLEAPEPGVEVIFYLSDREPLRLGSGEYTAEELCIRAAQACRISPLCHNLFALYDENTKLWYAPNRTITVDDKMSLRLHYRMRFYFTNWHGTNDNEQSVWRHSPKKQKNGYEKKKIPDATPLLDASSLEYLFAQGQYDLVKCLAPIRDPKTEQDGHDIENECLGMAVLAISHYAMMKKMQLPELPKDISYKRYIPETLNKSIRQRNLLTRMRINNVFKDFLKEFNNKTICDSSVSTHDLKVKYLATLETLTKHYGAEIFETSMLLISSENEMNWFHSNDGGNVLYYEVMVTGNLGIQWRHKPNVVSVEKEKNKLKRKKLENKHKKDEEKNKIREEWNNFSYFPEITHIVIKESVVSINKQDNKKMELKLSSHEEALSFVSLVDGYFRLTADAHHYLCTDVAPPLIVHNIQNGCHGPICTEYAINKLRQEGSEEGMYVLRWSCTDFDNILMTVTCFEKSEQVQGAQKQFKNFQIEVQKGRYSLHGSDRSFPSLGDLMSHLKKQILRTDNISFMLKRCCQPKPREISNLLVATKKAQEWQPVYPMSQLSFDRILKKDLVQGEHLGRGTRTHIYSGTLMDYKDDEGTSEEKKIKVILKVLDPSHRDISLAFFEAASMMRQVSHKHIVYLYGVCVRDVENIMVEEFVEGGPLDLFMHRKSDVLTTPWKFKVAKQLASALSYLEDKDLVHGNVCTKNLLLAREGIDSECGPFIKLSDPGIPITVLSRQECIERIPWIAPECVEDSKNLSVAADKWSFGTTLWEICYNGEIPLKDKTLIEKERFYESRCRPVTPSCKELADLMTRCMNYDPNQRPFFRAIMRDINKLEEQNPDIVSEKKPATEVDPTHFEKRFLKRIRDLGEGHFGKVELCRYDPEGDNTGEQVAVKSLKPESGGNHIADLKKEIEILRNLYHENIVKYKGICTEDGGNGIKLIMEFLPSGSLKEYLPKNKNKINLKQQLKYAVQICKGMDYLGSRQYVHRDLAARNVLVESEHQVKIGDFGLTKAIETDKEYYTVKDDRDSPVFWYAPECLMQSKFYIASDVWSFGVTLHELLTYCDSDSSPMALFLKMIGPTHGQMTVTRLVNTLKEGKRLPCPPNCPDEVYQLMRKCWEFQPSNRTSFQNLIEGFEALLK
Sequence of Protein cereblon/Tyrosine-protein kinase JAK1 (Q96SW2 whole entry): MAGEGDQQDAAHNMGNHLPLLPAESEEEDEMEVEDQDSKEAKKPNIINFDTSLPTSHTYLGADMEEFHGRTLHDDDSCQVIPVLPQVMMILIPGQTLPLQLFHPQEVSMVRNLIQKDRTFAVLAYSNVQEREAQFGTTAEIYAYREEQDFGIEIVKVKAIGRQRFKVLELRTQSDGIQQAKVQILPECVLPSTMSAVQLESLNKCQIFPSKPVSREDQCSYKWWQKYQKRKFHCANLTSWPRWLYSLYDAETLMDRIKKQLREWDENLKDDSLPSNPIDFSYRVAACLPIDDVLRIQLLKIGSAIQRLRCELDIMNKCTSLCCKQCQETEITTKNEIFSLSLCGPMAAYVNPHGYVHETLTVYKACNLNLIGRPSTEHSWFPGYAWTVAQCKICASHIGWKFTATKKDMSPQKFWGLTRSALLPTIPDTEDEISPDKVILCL
Sequence of Protein cereblon/Tyrosine-protein kinase JAK2 (Homo sapiens), O60674+Q96SW2 [UNDEFINED MUTATION] (O60674 whole entry, looked up, change not shown): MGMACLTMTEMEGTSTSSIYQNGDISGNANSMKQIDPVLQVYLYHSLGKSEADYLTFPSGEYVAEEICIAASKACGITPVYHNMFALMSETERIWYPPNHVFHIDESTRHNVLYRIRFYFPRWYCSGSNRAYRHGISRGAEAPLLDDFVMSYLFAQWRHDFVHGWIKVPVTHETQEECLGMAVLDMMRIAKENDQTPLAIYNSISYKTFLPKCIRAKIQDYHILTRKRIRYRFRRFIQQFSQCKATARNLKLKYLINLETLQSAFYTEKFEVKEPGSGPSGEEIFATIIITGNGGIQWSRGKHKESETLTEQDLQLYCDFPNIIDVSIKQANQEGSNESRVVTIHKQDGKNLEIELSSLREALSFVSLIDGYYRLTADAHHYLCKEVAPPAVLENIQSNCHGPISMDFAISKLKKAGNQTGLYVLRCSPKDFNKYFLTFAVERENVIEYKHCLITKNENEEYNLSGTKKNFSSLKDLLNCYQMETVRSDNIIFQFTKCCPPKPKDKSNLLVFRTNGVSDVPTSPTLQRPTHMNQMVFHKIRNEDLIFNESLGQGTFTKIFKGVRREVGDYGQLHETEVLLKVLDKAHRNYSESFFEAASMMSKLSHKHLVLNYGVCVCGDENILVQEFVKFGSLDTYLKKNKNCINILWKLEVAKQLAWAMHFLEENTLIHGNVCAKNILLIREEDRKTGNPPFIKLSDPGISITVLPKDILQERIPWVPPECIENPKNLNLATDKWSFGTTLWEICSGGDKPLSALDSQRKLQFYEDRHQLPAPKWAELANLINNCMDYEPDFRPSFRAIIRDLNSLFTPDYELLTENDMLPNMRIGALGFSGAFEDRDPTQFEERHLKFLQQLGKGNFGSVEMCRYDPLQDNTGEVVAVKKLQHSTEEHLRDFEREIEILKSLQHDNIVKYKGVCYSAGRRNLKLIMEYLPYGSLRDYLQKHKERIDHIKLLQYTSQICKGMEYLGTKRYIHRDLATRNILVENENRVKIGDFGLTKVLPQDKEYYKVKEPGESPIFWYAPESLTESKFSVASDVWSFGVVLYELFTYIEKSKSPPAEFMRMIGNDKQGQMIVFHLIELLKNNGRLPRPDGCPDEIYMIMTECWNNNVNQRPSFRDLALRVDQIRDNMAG
Sequence of Protein cereblon/Tyrosine-protein kinase JAK2 (Homo sapiens), O60674+Q96SW2 [UNDEFINED MUTATION] (Q96SW2 whole entry, looked up, change not shown): as the sequence (Q96SW2 whole entry) above

Broadly, the IC50 is the concentration needed to halve the response being measured. Usually DC50 stands for the midpoint of the concentration-degradation curve. Turning to `CS(=O)(=O)c1ccc(-c2cccc3nc(Nc4ccc(N5CCN(CC(=O)NCCCCCCCCNc6ccc7c(c6)C(=O)N(C6CCC(=O)NC6=O)C7=O)CC5)cc4)nn23)cc1` (configuration not stated), the Activity entry in data set [1] and in data set [5] was “Non-Toxic” throughout. In addition, the IC50 in data set [2] amounted to 8.45 nM. Further, the DC50 in data set [3] was < 35 nM. The result in data set [4] was Active.
Regarding `O=C1CCC(N2Cc3ccc(OCCCCCCC(=O)N4CCC(n5cc(-c6cnc7cccc(-c8cc(F)c(CN9CCOCC9)c(F)c8)c7n6)cn5)CC4)cc3C2=O)C(=O)N1` (configuration not stated), in data set [2], the IC50 turned out to be 3.8 nM.
In the case of `CS(=O)(=O)c1ccc(-c2cccc3nc(Nc4ccc(N5CCN(C(=O)CCCCCOc6ccc7c(c6)CN(C6CCC(=O)NC6=O)C7=O)CC5)cc4)nn23)cc1` (configuration not stated), the IC50 in data set [2] stood at 32.8 nM.
On the same count and under the same terms, the figure for `O=C1CCC(N2C(=O)c3ccc(NCCCCC(=O)N4CCC(n5cc(-c6cnc7cccc(-c8cc(F)c(CN9CCOCC9)c(F)c8)c7n6)cn5)CC4)cc3C2=O)C(=O)N1` (configuration not stated) is 13.8 nM.
For `O=C1CCC(N2C(=O)c3ccc(NCCCCCCCC(=O)N4CCC(n5cc(-c6cnc7cccc(-c8cc(F)c(CN9CCOCC9)c(F)c8)c7n6)cn5)CC4)cc3C2=O)C(=O)N1` (configuration not stated), in data set [2], the IC50 worked out at 54.4 nM.
On the same count and under the same terms, with `CS(=O)(=O)c1ccc(-c2cccc3nc(Nc4ccc(N5CCN(C(=O)CCCCCNc6ccc7c(c6)C(=O)N(C6CCC(=O)NC6=O)C7=O)CC5)cc4)nn23)cc1` (configuration not stated) the figure was 7.3 nM.
Same read-out and setting: the figure for `O=C1CCC(N2Cc3cc(OCCCCCC(=O)N4CCC(n5cc(-c6cnc7cccc(-c8cc(F)c(CN9CCOCC9)c(F)c8)c7n6)cn5)CC4)ccc3C2=O)C(=O)N1` (configuration not stated) is 3.6 nM; for `CS(=O)(=O)c1ccc(-c2cccc3nc(Nc4ccc(N5CCN(CC(=O)NCCCCCCCNc6ccc7c(c6)C(=O)N(C6CCC(=O)NC6=O)C7=O)CC5)cc4)nn23)cc1` (configuration not stated) it is 63.5 nM.
Consider `O=C1CCC(N2C(=O)c3ccc(NCCCCCC(=O)N4CCC(n5cc(-c6cnc7cccc(-c8cc(F)c(CN9CCOCC9)c(F)c8)c7n6)cn5)CC4)cc3C2=O)C(=O)N1` (configuration not stated), for which the Activity result in data set [1] and in data set [5] was “Non-Toxic” in each case. The IC50 in data set [2] stood at 2.03 nM. For the same molecule, the DC50 in data set [3] is < 5 nM.
Turning to `CS(=O)(=O)c1ccc(-c2cccc3nc(Nc4ccc(N5CCN(C(=O)CCCCCCOc6ccc7c(c6)C(=O)N(C6CCC(=O)NC6=O)C7)CC5)cc4)nn23)cc1` (configuration not stated), in data set [2], the IC50 amounted to 5.4 nM.
